Reference: the NIST ThermoML archive (doi:10.1016/j.fluid.2005.09.019)

How the values were obtained:
[1] = wn = mass fraction of the nth substance listed; conditions: Other PVT measurement
[2] = Crystal; visual observation

CCCCCCCCOC(=O)c1ccccc1-c1ccccc1C(=O)OCCCCCCCC [dioctyl [1,1'-biphenyl]-2,2'-dicarboxylate] + O=C=O
[1], Fluid (supercritical or subcritical phases)
Conditions	mass density [kg/m3]
294.15 K, 29730 kPa, w1 = 0.55	926
294.75 K, 7070 kPa, w1 = 0.019	786
294.95 K, 61930 kPa, w1 = 0.374	942
296.95 K, 55900 kPa, w1 = 0.374	931
297.05 K, 11550 kPa, w1 = 0.628	870
298.55 K, 27860 kPa, w1 = 0.55	917
299.45 K, 9000 kPa, w1 = 0.019	784
301.15 K, 12660 kPa, w1 = 0.628	862
303.75 K, 60200 kPa, w1 = 0.274	984
308.05 K, 69130 kPa, w1 = 0.094	953
311.55 K, 50510 kPa, w1 = 0.274	965
312.35 K, 42450 kPa, w1 = 0.374	882
313.45 K, 26760 kPa, w1 = 0.55	896
316.95 K, 53240 kPa, w1 = 0.094	911
317.25 K, 14760 kPa, w1 = 0.019	750
318.45 K, 16170 kPa, w1 = 0.628	848
319.45 K, 53170 kPa, w1 = 0.171	1122
320.25 K, 44070 kPa, w1 = 0.069	922
322.45 K, 27040 kPa, w1 = 0.55	895
322.55 K, 49720 kPa, w1 = 0.206	1098
323.45 K, 44620 kPa, w1 = 0.274	934
324.25 K, 48000 kPa, w1 = 0.094	883
327.05 K, 41620 kPa, w1 = 0.069	899
329.65 K, 48240 kPa, w1 = 0.171	1085
330.85 K, 28520 kPa, w1 = 0.55	882
331.25 K, 47070 kPa, w1 = 0.206	1071
334.65 K, 19620 kPa, w1 = 0.628	838
334.65 K, 39730 kPa, w1 = 0.374	852
334.85 K, 19620 kPa, w1 = 0.019	716
337.75 K, 42720 kPa, w1 = 0.274	903
339.35 K, 44380 kPa, w1 = 0.094	845
340.95 K, 45450 kPa, w1 = 0.206	1040
340.95 K, 46170 kPa, w1 = 0.171	1048
342.45 K, 40210 kPa, w1 = 0.374	857
342.75 K, 39580 kPa, w1 = 0.069	852
351.75 K, 44960 kPa, w1 = 0.206	1005
352.95 K, 42930 kPa, w1 = 0.274	879
353.55 K, 23520 kPa, w1 = 0.628	828
353.85 K, 32040 kPa, w1 = 0.55	866
353.95 K, 45690 kPa, w1 = 0.171	1013
354.35 K, 43820 kPa, w1 = 0.094	811
355.95 K, 41140 kPa, w1 = 0.374	830
356.55 K, 40450 kPa, w1 = 0.069	821
359.75 K, 25240 kPa, w1 = 0.019	671
359.75 K, 45100 kPa, w1 = 0.206	994
367.25 K, 43820 kPa, w1 = 0.274	849
369.25 K, 46200 kPa, w1 = 0.171	970
369.85 K, 45410 kPa, w1 = 0.206	955
370.25 K, 44510 kPa, w1 = 0.094	779
371.05 K, 26730 kPa, w1 = 0.628	821
371.45 K, 42590 kPa, w1 = 0.374	816
371.55 K, 41450 kPa, w1 = 0.069	788
371.85 K, 34480 kPa, w1 = 0.55	851
375.95 K, 27720 kPa, w1 = 0.019	638

CCCCCCCCOC(=O)c1cccc(-c2cccc(C(=O)OCCCCCCCC)c2)c1 [dioctyl [1,1'-biphenyl]-3,3'-dicarboxylate]
Conditions	Normal melting temperature [°C]
[2]	29.00

CCCCCCCCOC(=O)c1cccc(-c2cccc(C(=O)OCCCCCCCC)c2)c1 [dioctyl [1,1'-biphenyl]-3,3'-dicarboxylate] + O=C=O
[1]
Conditions	mass density [kg/m3]
294.95 K, 21200 kPa, Gas, w1 = 0.018	883
295.55 K, 15610 kPa, Gas, w1 = 0.62	1089
296.05 K, 6100 kPa, Fluid (supercritical or subcritical phases), w1 = 0.277	750
298.55 K, 6480 kPa, Fluid (supercritical or subcritical phases), w1 = 0.277	734
302.15 K, 7070 kPa, Fluid (supercritical or subcritical phases), w1 = 0.277	701
304.15 K, 7450 kPa, Fluid (supercritical or subcritical phases), w1 = 0.277	682
305.75 K, 23790 kPa, Gas, w1 = 0.018	856
306.05 K, 16070 kPa, Gas, w1 = 0.62	1076
312.65 K, 17750 kPa, Gas, w1 = 0.62	1052
313.75 K, 126340 kPa, Gas, w1 = 0.496	1150
318.65 K, 92850 kPa, Gas, w1 = 0.496	1121
324.55 K, 104160 kPa, Gas, w1 = 0.092	1160
324.65 K, 110450 kPa, Gas, w1 = 0.286	1131
326.85 K, 147870 kPa, Gas, w1 = 0.131	1240
328.15 K, 88980 kPa, Gas, w1 = 0.092	1124
329.05 K, 27960 kPa, Gas, w1 = 0.018	804
329.05 K, 90520 kPa, Gas, w1 = 0.286	1097
329.05 K, 137580 kPa, Gas, w1 = 0.256	1150
329.15 K, 121140 kPa, Gas, w1 = 0.388	1178
329.35 K, 116110 kPa, Gas, w1 = 0.201	1141
330.85 K, 105180 kPa, Gas, w1 = 0.388	1139
330.85 K, 113860 kPa, Gas, w1 = 0.256	1125
331.25 K, 106000 kPa, Gas, w1 = 0.131	1160
332.25 K, 83070 kPa, Gas, w1 = 0.286	1083
332.65 K, 20850 kPa, Gas, w1 = 0.62	1031
333.45 K, 68350 kPa, Gas, w1 = 0.496	1075
333.65 K, 93560 kPa, Gas, w1 = 0.201	1111
340.55 K, 73300 kPa, Gas, w1 = 0.092	1062
341.95 K, 70330 kPa, Gas, w1 = 0.286	1044
344.15 K, 77780 kPa, Gas, w1 = 0.388	1077
344.35 K, 77640 kPa, Gas, w1 = 0.256	1045
345.15 K, 74290 kPa, Gas, w1 = 0.201	1048
347.45 K, 60240 kPa, Gas, w1 = 0.496	1049
348.95 K, 30510 kPa, Gas, w1 = 0.018	760
350.05 K, 73950 kPa, Gas, w1 = 0.131	1054
352.15 K, 66510 kPa, Gas, w1 = 0.092	1019
352.95 K, 62980 kPa, Gas, w1 = 0.286	1010
353.95 K, 24590 kPa, Gas, w1 = 0.62	1013
353.95 K, 69580 kPa, Gas, w1 = 0.256	1015
358.75 K, 65340 kPa, Gas, w1 = 0.201	1005
360.85 K, 67620 kPa, Gas, w1 = 0.388	876
363.25 K, 57970 kPa, Gas, w1 = 0.496	997
365.65 K, 63340 kPa, Gas, w1 = 0.092	979
365.85 K, 33480 kPa, Gas, w1 = 0.018	726
366.35 K, 66790 kPa, Gas, w1 = 0.131	1002
366.65 K, 59240 kPa, Gas, w1 = 0.286	976
369.85 K, 63030 kPa, Gas, w1 = 0.256	969
370.45 K, 27170 kPa, Gas, w1 = 0.62	997
372.25 K, 61790 kPa, Gas, w1 = 0.201	968
